Assay results published in patent publication US6607710B1, “Bisphosphonic acid derivative and compound thereof labeled with radioactive nuclide” (Nihon Medi-Physics Co., Ltd., priority 1999, dated 2003).
“And” between values parts separate entries of the source, which are not always exact repeats. Identical values can stand only once.

Experiment: Determination of biodistribution of radiolabeled compounds in rats after caudal vein administration
Format: in vivo, SD strain rats
Settings: for Biodistribution, Blood / Biodistribution, Femur and Tibia / Biodistribution, Kidney / Biodistribution, Liver / Biodistribution, Urine: SD-rats female, n = 3, caudal vein
Protocol: SD strain rats (female, age in 8-9 weeks, n=3) were used with free access to water and food ad libitum, and anesthetized with Ravonal, (a trade name of thiopental sodium, manufactured by Tanabe Seiyaku Co., Ltd.), then the test sample solution was administered to the caudal vein. The test rats were killed by bleeding during the blood samples were taken from the abdominal aorta at each times of sampling after the administration. The organs of interest were excised. After measured the weights of these samples, the radioactivities were determined, and biodistributions were calculated. The results of determination of biodistribution relating to the labeled compounds obtained in Examples 1, 2 and 4 and the labeled compounds of methanediphosphonic acid (MDP) used as reference examples are shown in Tables 3 to 7. Determination results are indicated as %ID/g, and determination results of urine are indicated as %ID.

[1] = 15 Minutes after administration
[2] = 120 Minutes after administration

Biodistribution, Blood [1] | Biodistribution, Femur and Tibia [1] | Biodistribution, Kidney [1] [% ID/g] | Biodistribution, Liver [1] [% ID/g] | Biodistribution, Urine [1] | Biodistribution, Blood [2] [% ID/g] | Biodistribution, Femur and Tibia [2] | Biodistribution, Kidney [2] [% ID/g] | Biodistribution, Liver [2] [% ID/g] | Biodistribution, Urine [2] | change of accumulation level to the bone (in words) (SD-rats, from 15 minutes to 120 minutes after the administration) | accumulation to the bone (in words) (SD-rats, summary of Tables 3-8) | blood clearance (in words) (SD-rats, summary of Tables 3-8) | urinary excretion (in words) (SD-rats, summary of Tables 3-8) | SMILES
0.717 ± 0.159 % ID/g | 3.423 ± 0.302 % ID/g | 2.751 ± 0.951 | 0.495 ± 0.078 | 19.55 ± 0.72 % ID | 0.042 ± 0.006 | 3.714 ± 0.474 % ID/g | 1.070 ± 0.539 | 0.380 ± 0.037 | 41.54 ± 4.19 % ID | did not significantly vary | accumulated to the bone quickly | relatively rapid | rapidly excreted into urine | O=C(NCC(P(=O)(O)O)P(=O)(O)O)c1ccccc1I
0.599 ± 0.103 % ID/g | 3.014 ± 0.377 % ID/g | 3.225 ± 0.543 | 0.159 ± 0.009 | 29.69 ± 0.14 % ID | 0.089 ± 0.037 | 3.552 ± 0.327 % ID/g | 0.762 ± 0.279 | 0.068 ± 0.003 | 48.15 ± 1.50 % ID | – | – | – | – | O=C(O)CNC(=O)CC(P(=O)(O)O)P(=O)(O)O (99mTc complex, metal not drawn) [N-(3,3-diphosphonopropionyl)glycine]

SMILES | Biodistribution, Blood [1] | Biodistribution, Femur and Tibia [1] | Biodistribution, Kidney [1] [% ID/g] | Biodistribution, Liver [1] [% ID/g] | Biodistribution, Urine [1] | Biodistribution, Blood [2] [% ID/g] | Biodistribution, Femur and Tibia [2] | Biodistribution, Kidney [2] [% ID/g] | Biodistribution, Liver [2] [% ID/g] | Biodistribution, Urine [2] | change of accumulation level to the bone (in words) (SD-rats, from 15 minutes to 120 minutes after the administration) | accumulation to the bone (in words) (SD-rats, summary of Tables 3-8) | blood clearance (in words) (SD-rats, summary of Tables 3-8) | urinary excretion (in words) (SD-rats, summary of Tables 3-8)
O=C(O)CN(CCN(CC(=O)O)CC(=O)O)CCN(CC(=O)O)CC(=O)NCC(P(=O)(O)O)P(=O)(O)O [3,6-bis(carboxymethyl)-9-(((2,2-diphosphonoethyl)carbamoyl)m] [3,6-bis(carboxymethyl)-9-(((2,2-diphosphonoethyl)carbamoyl)methyl)-3,6,9-triazaundecanedicarboxylic acid] | 0.519 ± 0.025 % ID/g and 0.621 ± 0.239 % ID/g and 0.463 ± 0.056 % ID/g | 2.777 ± 0.311 % ID/g and 2.417 ± 0.495 % ID/g and 2.643 ± 0.182 % ID/g | – | – | 26.04 ± 9.29 % ID and 28.64 ± 5.55 % ID and 37.996 ± 5.927 % ID | – | 2.739 ± 0.385 % ID/g and 3.089 ± 0.340 % ID/g and 2.922 ± 0.187 % ID/g | – | – | 40.31 ± 9.02 % ID and 54.91 ± 1.96 % ID and 54.927 ± 4.073 % ID | – | – | – | –
